Laboratory results as given in patent US20240252488A1 (KOREA RESEARCH INSTITUTE OF CHEMICAL TECHNOLOGY, priority 2020, published 2024).
pKd: −log10 of the molar value.

Key:
FADD−/− Jurkat cells = assay: Necroptosis inhibition assay, TNF-α-induced necroptosis (CellTiter-Glo 2.0); type: cell-based, human; conditions: TNF-α 15 ng/mL; for Necroptosis inhibition assay (Rescue %) 1 μM: compound 1 μM; for Necroptosis inhibition assay (Rescue %) 10 μM: compound 10 μM
In short: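 Tested at three fixed concentrations (0.1, 1, 10 μM final) with a 30-minute room-temperature preincubation ahead of 15 ng/mL TNF-α challenge lasting 20 to 24 hours. Inhibition rate and cytotoxicity derive from ATP luminescence.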

MLKL [1] = biological target: T1, MLKL (Homo sapiens, UniProt Q8NB16); assay: MLKL degradation assay in HepG2 cell line (western blot); type: cell-based; set-up: endogenous in cells; host or cells: HepG2 or HaCaT; conditions: cell line not given; for Degradation assay (Degradation %) 1 μM: compound 1 μM; for Degradation assay (Degradation %) 10 μM: compound 10 μM
T1 sequence (Q8NB16 1-471): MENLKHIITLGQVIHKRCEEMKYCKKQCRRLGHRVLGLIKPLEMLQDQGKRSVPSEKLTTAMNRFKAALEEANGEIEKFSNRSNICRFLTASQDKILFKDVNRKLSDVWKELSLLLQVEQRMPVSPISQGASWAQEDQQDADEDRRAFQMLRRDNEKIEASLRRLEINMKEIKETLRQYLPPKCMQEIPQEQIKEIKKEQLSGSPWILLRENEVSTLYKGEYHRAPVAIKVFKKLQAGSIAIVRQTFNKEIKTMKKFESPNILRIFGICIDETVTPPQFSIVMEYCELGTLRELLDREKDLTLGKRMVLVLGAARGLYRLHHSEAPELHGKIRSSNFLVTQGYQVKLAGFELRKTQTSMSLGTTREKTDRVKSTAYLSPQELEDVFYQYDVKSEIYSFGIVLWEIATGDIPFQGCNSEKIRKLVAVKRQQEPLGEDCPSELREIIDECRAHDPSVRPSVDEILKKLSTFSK
In short: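 Degradation is judged from MLKL band intensity on immunoblots of HepG2 lysates taken after 20-24 hours of compound at final 1 or 10 μM.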

MLKL [2] = biological target: T1, MLKL; assay: Measurement of binding affinity with MLKL receptor (competitive binding assay, Kd); set-up: made in house; host or cells: HEK 293 cell line (T7 phage in E. coli BL21-derived host is also described)
In short: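 Kd comes from a bead-based competition format: compound-dependent loss of DNA-tagged, HEK 293-expressed MLKL capture, measured as eluate kinase by qPCR. Final DMSO is 0.9%.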

| Compound | Necroptosis inhibition assay (Rescue %) 1 μM (FADD−/− Jurkat cells) [%] | Necroptosis inhibition assay (Rescue %) 10 μM (FADD−/− Jurkat cells) [%] | Degradation assay (Degradation %) 1 μM (MLKL [1]) [%] | Degradation assay (Degradation %) 10 μM (MLKL [1]) [%] | pKd (MLKL [2]) | Necroptosis inhibition assay (Rescue %) 1 μM (FADD−/− Jurkat cells; FADD−/− Jurkat cells) [%] | Necroptosis inhibition assay (Rescue %) 10 μM (FADD−/− Jurkat cells; FADD−/− Jurkat cells) [%] |
| --- | --- | --- | --- | --- | --- | --- | --- |
| Nc1ncc(-c2cnn(C3CCN(CC4CN(C(=O)CNc5ccc6c(c5)C(=O)N(C5CCC(=O)NC5=O)C6=O)CCO4)CC3)c2)nc1C(=O)OC(C(=O)Nc1ccc(F)cc1)c1ccccc1 (stereo not shown) [TDH-307, 2-((4-fluorophenyl)amino)-2-oxo-1-phenylethyl 3-amino-6-(1-(1-((4-((2-(2,6-dioxopiperidin-3-yl)-1,3-dioxoisoindolin-5-yl)glycyl)morpholin-2-yl)methyl)piperidin-4-yl)-1H-pyrazol-4-yl)pyrazine-2-carboxylate] | 83.43 | 73.58 | 57.38 | 24.79 | 8.80 | – | – |
| Nc1ncc(-c2cnn(C3CCN(CCC4CCN(CC5CCN(C(=O)Cc6cccc(NC7=CC(=O)N(C8CCC(=O)NC8=O)C7=O)c6)CC5)CC4)CC3)c2)nc1C(=O)O[C@@H](C(=O)Nc1ccc(F)cc1)c1ccccc1 (stereo partly drawn) [TDH-510, (R)-2-((4-fluorophenyl)amino)-2-oxo-1-phenylethyl 3-amino-6-(1-(1-(2-(1-((1-(2-(3-((1-(2,6-dioxopiperidin-3-yl)-2,5-dioxo-2,5-dihydro-1H-pyrrol-3-yl)amino)phenyl)acetyl)piperidin-4-yl)methyl)piperidin-4-yl)ethyl)piperidin-4-yl)-1H-pyrazol-4-yl)pyrazine-2-carboxylate] | – | – | 79.77 | 84.86 | 9.33 | 28.63 | −91.81 |
| Nc1ncc(-c2cnn(C3CCN(C(=O)CCC4CCN(C(=O)C5CN(c6ccc7nnn(C8CCC(=O)NC8=O)c(=O)c7c6)C5)CC4)CC3)c2)nc1C(=O)O[C@@H](C(=O)Nc1ccc(F)cc1)c1ccccc1 (stereo partly drawn) [TDH-438, (R)-2-((4-fluorophenyl)amino)-2-oxo-1-phenylethyl 3-amino-6-(1-(1-(3-(1-(1-(3-(2,6-dioxopiperidin-3-yl)-4-oxo-3,4-dihydrobenzo[d][1,2,3]triazin-6-yl)azetidine-3-carbonyl)piperidin-4-yl)propanoyl)piperidin-4-yl)-1H-pyrazol-4-yl)pyrazine-2-carboxylate] | – | – | 86.72 | 78.91 | 8.35 | 26.37 | 13.48 |
| Nc1ncc(-c2cnn(C3CCN(C(=O)C4CCN(C(=O)CC5CCN(c6ccc7c(c6)C(=O)N(C6CCC(=O)NC6=O)C7=O)CC5)CC4)CC3)c2)nc1C(=O)O[C@@H](C(=O)Nc1ccc(F)cc1)c1ccccc1 (stereo partly drawn) [TDH-375, (R)-2-((4-fluorophenyl)amino)-2-oxo-1-phenylethyl 3-amino-6-(1-(1-(1-(2-(1-(2-(2,6-dioxopiperidin-3-yl)-1,3-dioxoisoindolin-5-yl)piperidin-4-yl)acetyl)piperidine-4-carbonyl)piperidin-4-yl)-1H-pyrazol-4-yl)pyrazine-2-carboxylate] | 30.67 | 20.44 | 93.86 | 86.43 | 8.64 | – | – |
| Nc1ncc(-c2cnn(C3CCN(C[C@H]4CC[C@H](CNC(=O)CNc5ccc6c(c5)C(=O)N(C5CCC(=O)NC5=O)C6=O)CC4)CC3)c2)nc1C(=O)O[C@@H](C(=O)Nc1ccc(F)cc1)c1ccccc1 (stereo partly drawn) [TDH-348, (R)-2-((4-fluorophenyl)amino)-2-oxo-1-phenylethyl 3-amino-6-(1-(1-(((1r,4r)-4-((2-((2-(2,6-dioxopiperidin-3-yl)-1,3-dioxoisoindolin-5-yl)amino)acetamido)methyl)cyclohexyl)methyl)piperidin-4-yl)-1H-pyrazol-4-yl)pyrazine-2-carboxylate] | 61.43 | 29.04 | 48.66 | 81.15 | 8.80 | – | – |
